Source: US12336981B2, “Compounds and compositions for the inhibition of NAMPT” (Valo Health, Inc., priority 2010, dated 2025)
Read-outs that look alike come from different tables or passages of the source.

How the values were obtained:
[1] = biological target: T1, NAMPT (Homo sapiens, UniProt P43490); assay: Biochemical inhibition assay: NAMPT enzymatic reaction, NMN quantified by mass spectrometry; conditions: read-out: Biochem IC50
T1 construct: His tag; host or cells: E. coli
Procedure, shortened: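 Inhibition of E. coli-expressed His-tagged human NAMPT, measured as NMN formation by mass spectrometry after a 30 min room-temperature reaction containing 1 μM NAM, 100 μM PRPP and 2.5 mM ATP.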

[2] = system: A2780 cells; assay: In-vitro cell proliferation assay (SRB), A2780 cells; type: cell-based; conditions: Homo sapiens, A2780, 72 h, A2780 cells, 72 hours, read-out: A2780 IC50
Procedure, shortened: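 Growth inhibition was derived from background-corrected SRB absorbance (570 nm), measured on cells fixed in 6% TCA after three days of compound treatment under 5% CO2 at 37° C.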

T1 sequence (P43490 whole entry): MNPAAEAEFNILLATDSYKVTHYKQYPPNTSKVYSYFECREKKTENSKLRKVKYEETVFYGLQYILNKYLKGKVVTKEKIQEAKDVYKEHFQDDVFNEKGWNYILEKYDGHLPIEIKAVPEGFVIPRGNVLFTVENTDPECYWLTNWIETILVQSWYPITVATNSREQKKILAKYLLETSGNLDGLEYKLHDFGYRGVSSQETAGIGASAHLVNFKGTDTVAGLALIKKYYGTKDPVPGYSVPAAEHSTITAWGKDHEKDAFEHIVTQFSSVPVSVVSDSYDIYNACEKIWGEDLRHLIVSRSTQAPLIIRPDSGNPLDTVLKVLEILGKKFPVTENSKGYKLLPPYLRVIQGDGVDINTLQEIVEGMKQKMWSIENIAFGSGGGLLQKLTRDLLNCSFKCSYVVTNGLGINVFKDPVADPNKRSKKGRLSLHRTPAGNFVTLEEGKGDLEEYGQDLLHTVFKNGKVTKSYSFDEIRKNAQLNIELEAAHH

Compound | IC50 ([1]; NAMPT enzymatic reaction) | IC50 ([2]; SRB assay) | IC50 ([1]; NAMPT enzymatic assay) | IC50 ([2]; SRB)
O=C(NCc1ccc(S(=O)(=O)N2CCCCC2)cc1)c1cnc2[nH]ncc2c1 [N-{[4-(piperidine-1-sulfonyl)phenyl]methyl}-1H-pyrazolo[3,4-b]pyridine-5-carboxamide] | 0.017 µM | 0.033 µM | – | –
O=C(NCc1ccc(CCS(=O)(=O)c2ccccc2)cc1)c1cc2cnccc2[nH]1 [N-({4-[2-(benzenesulfonyl)ethyl]phenyl}methyl)-1H-pyrrolo[3,2-c]pyridine-2-carboxamide] | – | – | 0.023 µM | 0.166 µM
O=C(NCc1ccc(S(=O)(=O)N2CC3CCC(C2)O3)cc1)c1cc2ccncc2s1 [N-[(4-{8-oxa-3-azabicyclo[3.2.1]octane-3-sulfonyl}phenyl)methyl]thieno[2,3-c]pyridine-2-carboxamide] | 0.015 µM | 0.003 µM | – | –
CN(C)C(=O)c1ccccc1S(=O)(=O)c1ccc(CNC(=O)c2ccc3nccn3c2)cc1 [N-[(4-{[2-(dimethylcarbamoyl)benzene]sulfonyl}phenyl)methyl]imidazo[1,2-a]pyridine-6-carboxamide] | – | – | > 0.167 µM | 0.1 to 1 µM
O=C(NCc1ccc(S(=O)(=O)c2ccc3c(c2)OCO3)cc1)c1cc2ccncc2o1 [N-{[4-(2H-1,3-benzodioxole-5-sulfonyl)phenyl]methyl}furo[2,3-c]pyridine-2-carboxamide] | – | – | 0.0053 µM | 0.0087 µM
COc1c(C)cc(S(=O)(=O)c2ccc(CNC(=O)c3ccc4nccn4c3)cc2)cc1C | 0.0146 µM | – | – | 0.0014 µM
O=C(NCc1ccc(S(=O)(=O)c2ccc(Cl)c(C(F)(F)F)c2)cc1)c1cc2ccncc2o1 | – | – | 0.006 µM | 0.0069 µM
O=C(NCc1ccc(S(=O)(=O)c2ccc3ncccc3c2)cc1)c1cnc2[nH]ncc2c1 [N-{[4-(quinoline-6-sulfonyl)phenyl]methyl}-1H-pyrazolo[3,4-b]pyridine-5-carboxamide] | – | – | 0.0101 µM | 0.0041 µM
COc1cncc(S(=O)(=O)c2ccc(CNC(=O)c3cnc4nccn4c3)cc2)c1 [N-{[4-(5-methoxypyridine-3-sulfonyl)phenyl]methyl}imidazo[1,2-a]pyrimidine-6-carboxamide] | – | – | 0.0016 µM | 0.0258 µM
Cn1ncc2ccc(S(=O)(=O)c3ccc(CNC(=O)c4cnc5nccn5c4)cc3)cc21 [N-{[4-(1-methyl-1H-indazole-6-sulfonyl)phenyl]methyl}imidazo[1,2-a]pyrimidine-6-carboxamide] | – | – | 0.0016 µM | 0.005 µM
O=C(NCc1ccc(S(=O)(=O)c2ccc3c(c2)OCCO3)cc1)c1cc2ccncc2o1 [N-{[4-(2,3-dihydro-1,4-benzodioxine-6-sulfonyl)phenyl]methyl}furo[2,3-c]pyridine-2-carboxamide] | – | – | 0.0055 µM | 0.0062 µM
O=C(NCc1ccc(S(=O)(=O)Nc2ccc3cn[nH]c3c2)cc1)c1cc2cnccc2[nH]1 [N-({4-[(1H-indazol-6-yl)sulfamoyl]phenyl}methyl)-1H-pyrrolo[3,2-c]pyridine-2-carboxamide] | 0.135 µM | 5.44 µM | – | –
Cc1cc(C)c(S(=O)(=O)c2ccc(CNC(=O)c3cc4ccncc4s3)cc2)cc1C [N-({4-[(2,4,5-trimethylbenzene)sulfonyl]phenyl}methyl)thieno[2,3-c]pyridine-2-carboxamide] | – | – | 0.008 µM | 0.0081 µM
O=C(NCc1ccc(S(=O)(=O)c2cc(F)cc(N3CCOCC3)c2)cc1)c1ccc2nccn2c1 | – | – | 0.003 µM | 0.0006 µM
O=C(NCc1ccc(S(=O)(=O)c2ccc(F)c(C(F)(F)F)c2)cc1)c1cc2ccncc2o1 | – | – | 0.0082 µM | 0.0072 µM
O=C(NCc1ccc(S(=O)(=O)c2ccccc2F)cc1)c1cc2ccncc2o1 [N-({4-[(2-fluorobenzene)sulfonyl]phenyl}methyl)furo[2,3-c]pyridine-2-carboxamide] | 0.0418 µM | – | – | 0.1 to 1 µM

Compound | IC50 ([1]; NAMPT enzymatic reaction) | IC50 ([2]; SRB assay) | IC50 ([1]; NAMPT enzymatic assay) | IC50 ([2]; SRB)
CC(C)Oc1cccc(S(=O)(=O)c2ccc(CNC(=O)c3cc4ccncc4o3)cc2)c1 | – | – | 0.0126 µM | 0.0144 µM
COc1ccc(S(=O)(=O)c2ccc(CNC(=O)c3cc4ccncc4o3)cc2)c(OC)n1 [N-{[4-(2,6-dimethoxypyridine-3-sulfonyl)phenyl]methyl}furo[2,3-c]pyridine-2-carboxamide] | – | – | 0.0066 µM | 0.011 µM
CC(=O)c1ccccc1S(=O)(=O)c1ccc(CNC(=O)c2cnc3nccn3c2)cc1 | 0.0025 µM | – | – | 0.0082 µM
CCN(C)c1ncc(S(=O)(=O)c2ccc(CNC(=O)c3ccc4nccn4c3)cc2)s1 [N-[(4-{2-[ethyl(methyl)amino]-1,3-thiazole-5-sulfonyl}phenyl)methyl]imidazo[1,2-a]pyridine-6-carboxamide] | – | – | 0.0033 µM | 0.0004 µM
O=C(NCc1ccc(S(=O)(=O)c2ccccc2OC(F)(F)F)cc1)c1cc2ccncc2s1 [N-[(4-{[2-(trifluoromethoxy)benzene]sulfonyl}phenyl)methyl]thieno[2,3-c]pyridine-2-carboxamide] | 0.004 µM | 0.0028 µM | – | –
COc1ccc(F)c(S(=O)(=O)c2ccc(CNC(=O)c3cc4ccncc4o3)cc2)c1 | 0.0268 µM | – | – | 0.0637 µM
O=C(NCc1ccc(S(=O)(=O)c2ccc(-c3ccccc3)cc2)cc1)c1cc2cc(O)ccc2[nH]1 | 0.1 to 1 µM | – | – | 1 to 10 µM
Cc1cnc(S(=O)(=O)c2ccc(CNC(=O)c3ccc4nccn4c3)cc2)n1C [N-{[4-(1,5-dimethyl-1H-imidazole-2-sulfonyl)phenyl]methyl}imidazo[1,2-a]pyridine-6-carboxamide] | – | – | 0.0309 µM | 0.0731 µM
O=C(NCc1ccc(S(=O)(=O)c2cccc(OCC(F)(F)F)c2)cc1)c1cc2ccncc2o1 [N-[(4-{[3-(2,2,2-trifluoroethoxy)benzene]sulfonyl}phenyl)methyl]furo[2,3-c]pyridine-2-carboxamide] | – | – | 0.0072 µM | 0.012 µM
O=C(NCc1ccc(S(=O)(=O)c2cccc3cccnc23)cc1)c1cnc2[nH]ncc2c1 [N-{[4-(quinoline-8-sulfonyl)phenyl]methyl}-1H-pyrazolo[3,4-b]pyridine-5-carboxamide] | – | – | 0.0455 µM | 0.0236 µM
Cc1nc(S(=O)(=O)c2ccc(CNC(=O)c3cc4ccncc4s3)cc2)ccc1F [N-{[4-(5-fluoro-6-methylpyridine-2-sulfonyl)phenyl]methyl}thieno[2,3-c]pyridine-2-carboxamide] | – | – | 0.0083 µM | 0.0071 µM
O=C(NCc1ccc(S(=O)(=O)c2ccc(C(F)(F)F)cc2C(F)(F)F)cc1)c1cc2cnccc2[nH]1 | – | – | 0.0401 µM | 0.014 µM
O=C(NCc1ccc(S(=O)(=O)c2ccccc2OC(F)(F)F)cc1)c1cc2ccncc2o1 | – | – | 0.0086 µM | 0.0146 µM
O=C(NCc1ccc(S(=O)(=O)c2ccc(C(F)(F)F)cn2)cc1)c1ccc2nccn2c1 [N-({4-[5-(trifluoromethyl)pyridine-2-sulfonyl]phenyl}methyl)imidazo[1,2-a]pyridine-6-carboxamide] | – | – | 0.0463 µM | 0.0326 µM
COc1ccc(Cl)cc1NS(=O)(=O)c1ccc(CNC(=O)c2cc3cnccc3[nH]2)cc1 [N-({4-[(5-chloro-2-methoxyphenyl)sulfamoyl]phenyl}methyl)-1H-pyrrolo[3,2-c]pyridine-2-carboxamide] | 0.197 µM | 18 µM | – | –
Cc1cc(Cl)cnc1S(=O)(=O)c1ccc(CNC(=O)c2cc3ccncc3s2)cc1 [N-{[4-(5-chloro-3-methylpyridine-2-sulfonyl)phenyl]methyl}thieno[2,3-c]pyridine-2-carboxamide] | – | – | 0.0039 µM | 0.0072 µM
